Assay: Assay (I): Determination of Solubility (96-well plate, pH 3.0-11.0, organic solvent 0-70% w/w, UV absorption at 280 nm)
Format: physicochemical
Details: Method 2 (precipitation), 5° C.
Method: Assay (I): Determination of Solubility
96-Well Plate Preparation
96-well plates containing target peptide in a solid form were prepared in one of two ways:
Method 1 (evaporation): Addition of 100 μl stock solution of said peptide at a concentration of 4-6 mg/ml to each well of a 96-well half area plate (150 μl well size). Subsequently the solvent was evaporated by applying a vacuum until the solvent was completely removed.
Method 2 (precipitation): Addition of a certain volume of a stock solution of said peptide containing to each well of a 96-well half area plate followed by the addition of a certain volume of concentrated phosphoric acid to obtain a pH of 4.6 followed by addition of a certain volume of ethanol resulting in a final ethanol concentration of 20% v/v. Subsequently the plate was stored at 4° C. for 1 h and then centrifuged at 4,000 rpm for 20 min. Finally the supernatant was removed. The concentration of the stock solution was chosen in a way that the final amount of peptide after supernatant removal was >0.4 mg per well.
In both cases the stock solution was prepared by adding de-ionized water to a certain amount of powder of said peptide followed by a stepwise addition of small amounts of a concentrated sodium hydroxide solution until said peptide was completely in solution.
To determine solubility of a target peptide at different pH and organic solvent concentrations, two different buffer systems were used in independent experiments to cover the whole range from pH 3.0 to pH 11.0. Buffer system 1 covers pH 3.0-7.5 and buffer system 2 covers pH 7.5-11.0. For each buffer system 96 different solvent compositions were premixed in the following way: • 1. A low pH buffer (adjusted to either pH 3.0 or pH 7.5) and a high pH buffer (adjusted to either pH 7.5 or pH 11.0) were mixed at 8 different ratios to obtain values between pH 3.0 and pH 7.5 or pH 7.5 and pH 11.0, respectively. The total volume after mixing was 300 μl. • 2. 12 different amounts of organic solvent were then added to these buffers to obtain organic solvent (e.g. ethanol) concentrations between 0 and 70% w/w. • 3. Water was then added to obtain a total weight of 1.0 g of solvent in each well.
After preparing the 96 different solvent systems, 100 μl of each system was transferred to the 96-well plate containing the solid form of the target peptide (prepared as described in the section “96-well plate preparation”). The plate was then stored at a given temperature (between 5° C. and 70° C.) for a given time on a rotating shaker set to 400 rpm. At regular time intervals the plate was centrifuged (4,000 rpm for 10 min) and a 10 μl sample was taken from each well. The samples were then analysed by UV absorption at 280 nm for peptide quantification. Peptide concentration results are given as UV absorption at 280 nm of the sample subtracted UV absorption at 280 nm of a well comprising 10 μl water.
The buffers used were as follows: • Buffer system 1 (for the pH range from pH 3.0-7.5)
• Buffer system 2 (for the pH ranae from pH 7.5-11.0)
Solubility of liraglutide was determined using Assay (I) described herein. Liraglutide was prepared using Method 1 (evaporation) or Method 2 (precipitation) as described in subsection “96-well plate preparation”.

GLP-1 peptide concentration (MeCN 57.3% w/w, pH 9.50, 5 min, before removal of outliers): 0.5 mg/mL | GLP-1 peptide concentration (MeCN 57.3% w/w, pH 9.50, 180 min, after removal of outliers): >4.0 mg/mL | GLP-1 peptide concentration (MeCN 57.3% w/w, pH 9.50, 180 min, before removal of outliers): >4.0 mg/mL | GLP-1 peptide concentration (MeCN 57.3% w/w, pH 9.50, 24 h, after removal of outliers): 2.5 mg/mL | GLP-1 peptide concentration (MeCN 57.3% w/w, pH 9.50, 24 h, before removal of outliers): 2.5 mg/mL | GLP-1 peptide concentration (MeCN 57.3% w/w, pH 10.00, 5 min, after removal of outliers): 0.4 mg/mL | GLP-1 peptide concentration (MeCN 57.3% w/w, pH 10.00, 5 min, before removal of outliers): 0.4 mg/mL | GLP-1 peptide concentration (MeCN 57.3% w/w, pH 10.00, 180 min, after removal of outliers): >4.0 mg/mL | GLP-1 peptide concentration (MeCN 57.3% w/w, pH 10.00, 180 min, before removal of outliers): >4.0 mg/mL | GLP-1 peptide concentration (MeCN 57.3% w/w, pH 10.00, 24 h, after removal of outliers): 1.1 mg/mL | GLP-1 peptide concentration (MeCN 57.3% w/w, pH 10.00, 24 h, before removal of outliers): 1.1 mg/mL | GLP-1 peptide concentration (MeCN 57.3% w/w, pH 10.50, 5 min, after removal of outliers): 0.5 mg/mL | GLP-1 peptide concentration (MeCN 57.3% w/w, pH 10.50, 5 min, before removal of outliers): 0.5 mg/mL | GLP-1 peptide concentration (MeCN 57.3% w/w, pH 10.50, 180 min, after removal of outliers): >4.0 mg/mL | GLP-1 peptide concentration (MeCN 57.3% w/w, pH 10.50, 180 min, before removal of outliers): >4.0 mg/mL | GLP-1 peptide concentration (MeCN 57.3% w/w, pH 10.50, 24 h, after removal of outliers): 1.7 mg/mL | GLP-1 peptide concentration (MeCN 57.3% w/w, pH 10.50, 24 h, before removal of outliers): 1.7 mg/mL | GLP-1 peptide concentration (MeCN 57.3% w/w, pH 11.00, 5 min, after removal of outliers): 0.5 mg/mL | GLP-1 peptide concentration (MeCN 57.3% w/w, pH 11.00, 5 min, before removal of outliers): 0.5 mg/mL | GLP-1 peptide concentration (MeCN 57.3% w/w, pH 11.00, 180 min, after removal of outliers): >4.0 mg/mL | GLP-1 peptide concentration (MeCN 57.3% w/w, pH 11.00, 180 min, before removal of outliers): >4.0 mg/mL | GLP-1 peptide concentration (MeCN 57.3% w/w, pH 11.00, 24 h, after removal of outliers): 3.6 mg/mL | GLP-1 peptide concentration (MeCN 57.3% w/w, pH 11.00, 24 h, before removal of outliers): 3.6 mg/mL | GLP-1 peptide concentration (MeCN 63.6% w/w, pH 7.50, 5 min, before removal of outliers): 0.4 mg/mL | GLP-1 peptide concentration (MeCN 63.6% w/w, pH 7.50, 180 min, before removal of outliers): 1.0 mg/mL | GLP-1 peptide concentration (MeCN 63.6% w/w, pH 7.50, 24 h, before removal of outliers): 2.4 mg/mL | GLP-1 peptide concentration (MeCN 63.6% w/w, pH 8.00, 5 min, after removal of outliers): 0.5 mg/mL | GLP-1 peptide concentration (MeCN 63.6% w/w, pH 8.00, 5 min, before removal of outliers): 0.5 mg/mL | GLP-1 peptide concentration (MeCN 63.6% w/w, pH 8.00, 180 min, after removal of outliers): 1.2 mg/mL | GLP-1 peptide concentration (MeCN 63.6% w/w, pH 8.00, 180 min, before removal of outliers): 1.2 mg/mL | GLP-1 peptide concentration (MeCN 63.6% w/w, pH 8.00, 24 h, after removal of outliers): 3.2 mg/mL | GLP-1 peptide concentration (MeCN 63.6% w/w, pH 8.00, 24 h, before removal of outliers): 3.2 mg/mL | GLP-1 peptide concentration (MeCN 63.6% w/w, pH 8.50, 5 min, after removal of outliers): 0.5 mg/mL | GLP-1 peptide concentration (MeCN 63.6% w/w, pH 8.50, 5 min, before removal of outliers): 0.5 mg/mL | GLP-1 peptide concentration (MeCN 63.6% w/w, pH 8.50, 180 min, after removal of outliers): 3.1 mg/mL | GLP-1 peptide concentration (MeCN 63.6% w/w, pH 8.50, 180 min, before removal of outliers): 3.1 mg/mL | GLP-1 peptide concentration (MeCN 63.6% w/w, pH 8.50, 24 h, after removal of outliers): 3.1 mg/mL | GLP-1 peptide concentration (MeCN 63.6% w/w, pH 8.50, 24 h, before removal of outliers): 3.1 mg/mL | GLP-1 peptide concentration (MeCN 63.6% w/w, pH 9.00, 5 min, after removal of outliers): 0.5 mg/mL | GLP-1 peptide concentration (MeCN 63.6% w/w, pH 9.00, 5 min, before removal of outliers): 0.5 mg/mL | GLP-1 peptide concentration (MeCN 63.6% w/w, pH 9.00, 180 min, after removal of outliers): 1.7 mg/mL | GLP-1 peptide concentration (MeCN 63.6% w/w, pH 9.00, 180 min, before removal of outliers): 1.7 mg/mL | GLP-1 peptide concentration (MeCN 63.6% w/w, pH 9.00, 24 h, after removal of outliers): >4.0 mg/mL | GLP-1 peptide concentration (MeCN 63.6% w/w, pH 9.00, 24 h, before removal of outliers): >4.0 mg/mL | GLP-1 peptide concentration (MeCN 63.6% w/w, pH 9.50, 5 min, after removal of outliers): 0.6 mg/mL | GLP-1 peptide concentration (MeCN 63.6% w/w, pH 9.50, 5 min, before removal of outliers): 0.6 mg/mL | GLP-1 peptide concentration (MeCN 63.6% w/w, pH 9.50, 180 min, after removal of outliers): 2.9 mg/mL | GLP-1 peptide concentration (MeCN 63.6% w/w, pH 9.50, 180 min, before removal of outliers): 2.9 mg/mL | GLP-1 peptide concentration (MeCN 63.6% w/w, pH 9.50, 24 h, after removal of outliers): 1.2 mg/mL | GLP-1 peptide concentration (MeCN 63.6% w/w, pH 9.50, 24 h, before removal of outliers): 1.2 mg/mL | GLP-1 peptide concentration (MeCN 63.6% w/w, pH 10.00, 5 min, after removal of outliers): 0.4 mg/mL
Structure (SMILES): CCCCCCCCCCCCCCCC(=O)N[C@@H](CCC(=O)NCCCC[C@H](NC(=O)[C@H](C)NC(=O)[C@H](C)NC(=O)[C@H](CCC(N)=O)NC(=O)CNC(=O)[C@H](CCC(=O)O)NC(=O)[C@H](CC(C)C)NC(=O)[C@H](Cc1ccc(O)cc1)NC(=O)[C@H](CO)NC(=O)[C@H](CO)NC(=O)[C@@H](NC(=O)[C@H](CC(=O)O)NC(=O)[C@H](CO)NC(=O)[C@@H](NC(=O)[C@H](Cc1ccccc1)NC(=O)[C@@H](NC(=O)CNC(=O)[C@H](CCC(=O)O)NC(=O)[C@H](C)NC(=O)[C@@H](N)Cc1cnc[nH]1)[C@@H](C)O)[C@@H](C)O)C(C)C)C(=O)N[C@@H](CCC(=O)O)C(=O)N[C@@H](Cc1ccccc1)C(=O)N[C@H](C(=O)N[C@@H](C)C(=O)N[C@@H](Cc1c[nH]c2ccccc12)C(=O)N[C@@H](CC(C)C)C(=O)N[C@H](C(=O)N[C@@H](CCCNC(=N)N)C(=O)NCC(=O)N[C@@H](CCCNC(=N)N)C(=O)NCC(=O)O)C(C)C)[C@@H](C)CC)C(=O)O [liraglutide, Arg34,Lys26-(N-epsilon-(gamma-L-glutamyl(N-alfa-hexadecanoyl)))-GLP-1(7-37)]
